The source made the active and inactive calls. The rule behind the calls is not given here.
Legend:
[1] = biological target: C-C chemokine receptor type 1 (Homo sapiens) (UniProt P32246); test: Agonist activity against CCR1 (unknown origin) assessed as induction of beta-arrestin 2 recruitment at 10 microM by beta arrestin assay relative to control; type: functional
[2] = biological target: Chemerin-like receptor 1 (Homo sapiens) (UniProt Q99788); test: Agonist activity against CMKLR1 (unknown origin) assessed as induction of beta-arrestin 2 recruitment at 10 microM by beta arrestin assay relative to control; type: functional
Chemerin-like receptor 1 (Homo sapiens), sequence (Q99788 whole entry): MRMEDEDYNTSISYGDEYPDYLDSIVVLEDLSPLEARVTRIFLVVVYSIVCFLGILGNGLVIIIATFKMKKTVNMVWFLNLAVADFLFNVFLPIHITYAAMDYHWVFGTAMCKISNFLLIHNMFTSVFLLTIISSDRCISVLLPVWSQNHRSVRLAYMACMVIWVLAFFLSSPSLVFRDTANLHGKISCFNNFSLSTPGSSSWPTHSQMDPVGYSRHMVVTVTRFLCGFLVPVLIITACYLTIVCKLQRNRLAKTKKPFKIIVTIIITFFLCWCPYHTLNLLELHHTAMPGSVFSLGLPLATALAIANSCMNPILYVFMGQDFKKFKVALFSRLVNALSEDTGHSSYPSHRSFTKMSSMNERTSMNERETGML

[3] = AUC (0 to t) in ICR mouse at 3 mg/kg, iv measured upto 48 hrs; type: ADME, organism-based; set-up: route intravenous, dose 3 mg/kg, time <=48; details: in vivo
[4] = Tmax in ICR mouse at 30 mg/kg, po measured upto 48 hrs; type: ADME, organism-based; details: in vivo
[5] = tested on: Neutrophil; test: In vivo antagonist activity at CXCR2 in carrageenan-induced C57BL/6 mouse air pouch inflammation model assessed as reduction in neutrophil infiltration into air pouch at 30 mg/kg, po bid administered after 3 days of carrageenan treatment for 3 days; type: functional, organism-based; details: time 3.0 day
[6] = biological target: Atypical chemokine receptor 3 (Homo sapiens) (UniProt P25106); test: Antagonist activity against CXCR7 (unknown origin) assessed as inhibition of beta-arrestin 2 recruitment at 10 microM by beta arrestin assay relative to control; type: functional; set-up: scale not given: the % may be the effect or the level left
Atypical chemokine receptor 3 (Homo sapiens), sequence (P25106 whole entry): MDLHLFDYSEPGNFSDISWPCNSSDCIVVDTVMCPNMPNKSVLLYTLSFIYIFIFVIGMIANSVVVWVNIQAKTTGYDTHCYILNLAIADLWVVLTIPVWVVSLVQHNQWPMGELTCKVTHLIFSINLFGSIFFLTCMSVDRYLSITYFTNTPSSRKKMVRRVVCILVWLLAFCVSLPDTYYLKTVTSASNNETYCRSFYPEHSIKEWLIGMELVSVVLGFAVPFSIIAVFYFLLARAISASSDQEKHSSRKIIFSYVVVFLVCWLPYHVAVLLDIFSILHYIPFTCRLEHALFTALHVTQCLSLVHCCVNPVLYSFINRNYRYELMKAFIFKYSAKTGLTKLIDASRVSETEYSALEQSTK

[7] = Half life in ICR mouse at 3 mg/kg, iv measured upto 48 hrs; type: ADME, organism-based; details: in vivo
[8] = tested on: PANC-1; test: Cytotoxicity against human PanC-1 cells assessed as reduction in cell viability measured after 72 hrs by CCK8 assay; type: cell-based; details: PANC-1, 72 h
[9] = tested on: Panc02; test: Antitumour activity against mouse Panc02 cells xenografted in mouse assessed as change in Gr1 expressing immune cells infiltration into tumor tissue at 10 mg/kg, po bid measured after 15 days by flow cytometry analysis (reference value: 27.4%); type: functional; details: time 15 day
[10] = tested on: Panc02; test: Antitumour activity against mouse Panc02 cells xenografted in mouse assessed as change in Gr1 expressing immune cells infiltration into tumor tissue at 30 mg/kg, po bid measured after 15 days by flow cytometry analysis (reference value: 27.4%); type: functional; details: time 15 day
[11] = biological target: C-X-C chemokine receptor type 2 (Homo sapiens) (UniProt P25025); test: Antagonist activity against CXCR2 (unknown origin) assessed as inhibition of beta-arrestin 2 recruitment at 10 microM by beta arrestin assay relative to control; type: functional; set-up: scale not given: the % may be the effect or the level left; details: filed as antagonist
[12] = biological target: T1, C-X-C chemokine receptor type 2 (Homo sapiens, UniProt P25025); test: Antagonist activity at human CXCR2 expressed in HEK293 cells assessed as inhibition of CXCL8-induced beta-arrestin recruitment preincubated for 30 mins followed by addition of agonist incubated for 90 mins by beta arrestin assay; type: functional, cell-based
T1 sequence (P25025 whole entry): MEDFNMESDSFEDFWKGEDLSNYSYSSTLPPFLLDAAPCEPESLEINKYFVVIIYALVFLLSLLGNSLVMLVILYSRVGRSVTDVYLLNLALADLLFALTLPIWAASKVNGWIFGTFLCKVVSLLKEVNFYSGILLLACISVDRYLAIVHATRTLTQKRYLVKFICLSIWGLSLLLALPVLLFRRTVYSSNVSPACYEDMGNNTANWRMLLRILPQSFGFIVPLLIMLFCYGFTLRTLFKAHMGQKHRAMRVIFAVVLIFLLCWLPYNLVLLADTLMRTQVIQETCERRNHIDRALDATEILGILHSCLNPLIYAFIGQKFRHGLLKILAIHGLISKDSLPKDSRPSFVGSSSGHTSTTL

[13] = biological target: C-X-C chemokine receptor type 1 (Homo sapiens) (UniProt P25024); test: Antagonist activity against CXCR1 (unknown origin) assessed as inhibition of beta-arrestin 2 recruitment at 10 microM by beta arrestin assay relative to control; type: functional; set-up: scale not given: the % may be the effect or the level left
C-X-C chemokine receptor type 1 (Homo sapiens), sequence (P25024 whole entry): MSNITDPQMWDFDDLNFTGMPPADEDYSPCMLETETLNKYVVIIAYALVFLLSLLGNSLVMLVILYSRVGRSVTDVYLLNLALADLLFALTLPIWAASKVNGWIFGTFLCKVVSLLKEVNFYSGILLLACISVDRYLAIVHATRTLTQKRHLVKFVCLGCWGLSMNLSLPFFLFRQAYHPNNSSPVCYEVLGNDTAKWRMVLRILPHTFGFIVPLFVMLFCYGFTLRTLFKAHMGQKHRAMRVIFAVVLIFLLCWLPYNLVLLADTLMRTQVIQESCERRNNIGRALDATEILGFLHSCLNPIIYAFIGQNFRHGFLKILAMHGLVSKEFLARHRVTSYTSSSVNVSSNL

[14] = biological target: T1, C-X-C chemokine receptor type 2; test: Displacement of [I-125]-interleukin-8 against human recombinant CXCR2 expressed in CHO-K1 cells incubated for 60 mins by radio ligand binding assay; type: cell-based
[15] = biological target: C-C chemokine receptor type 2 (Homo sapiens) (UniProt P41597); test: Antagonist activity against CCR2 (unknown origin) assessed as inhibition of beta-arrestin 2 recruitment at 10 microM by beta arrestin assay relative to control; type: functional; set-up: scale not given: the % may be the effect or the level left
C-C chemokine receptor type 2 (Homo sapiens), sequence (P41597 whole entry, looked up): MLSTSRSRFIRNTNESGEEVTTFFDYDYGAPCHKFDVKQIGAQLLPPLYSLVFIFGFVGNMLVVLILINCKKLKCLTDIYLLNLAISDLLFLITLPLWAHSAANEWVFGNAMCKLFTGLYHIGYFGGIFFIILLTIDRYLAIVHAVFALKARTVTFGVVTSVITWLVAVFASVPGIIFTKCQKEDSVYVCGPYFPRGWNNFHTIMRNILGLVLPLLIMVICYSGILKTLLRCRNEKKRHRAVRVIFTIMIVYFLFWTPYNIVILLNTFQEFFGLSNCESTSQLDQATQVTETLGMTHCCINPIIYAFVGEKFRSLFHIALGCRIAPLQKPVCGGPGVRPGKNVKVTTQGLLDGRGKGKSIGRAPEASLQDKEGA

[16] = biological target: C-C chemokine receptor type 9 (Homo sapiens) (UniProt P51686); test: Agonist activity against CCR9 (unknown origin) assessed as induction of beta-arrestin 2 recruitment at 10 microM by beta arrestin assay relative to control; type: functional
C-C chemokine receptor type 9 (Homo sapiens), sequence (P51686 whole entry): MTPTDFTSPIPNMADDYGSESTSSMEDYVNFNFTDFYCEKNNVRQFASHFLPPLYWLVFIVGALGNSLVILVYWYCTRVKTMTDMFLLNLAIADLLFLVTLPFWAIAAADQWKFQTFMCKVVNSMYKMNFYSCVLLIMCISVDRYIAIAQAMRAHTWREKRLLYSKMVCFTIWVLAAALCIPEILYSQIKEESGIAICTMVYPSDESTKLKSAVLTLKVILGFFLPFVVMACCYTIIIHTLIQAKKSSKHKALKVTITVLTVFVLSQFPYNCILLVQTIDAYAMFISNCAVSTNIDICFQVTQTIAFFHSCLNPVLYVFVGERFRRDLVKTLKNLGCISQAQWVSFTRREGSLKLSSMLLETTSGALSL

[17] = Cmax in ICR mouse at 30 mg/kg, po measured upto 48 hrs; type: ADME, organism-based; set-up: route oral, dose 30 mg/kg, time <=48; details: in vivo
[18] = biological target: C-C chemokine receptor type 6 (Homo sapiens) (UniProt P51684); test: Agonist activity against CCR6 (unknown origin) assessed as induction of beta-arrestin 2 recruitment at 10 microM by beta arrestin assay relative to control; type: functional
C-C chemokine receptor type 6 (Homo sapiens), sequence (P51684 whole entry): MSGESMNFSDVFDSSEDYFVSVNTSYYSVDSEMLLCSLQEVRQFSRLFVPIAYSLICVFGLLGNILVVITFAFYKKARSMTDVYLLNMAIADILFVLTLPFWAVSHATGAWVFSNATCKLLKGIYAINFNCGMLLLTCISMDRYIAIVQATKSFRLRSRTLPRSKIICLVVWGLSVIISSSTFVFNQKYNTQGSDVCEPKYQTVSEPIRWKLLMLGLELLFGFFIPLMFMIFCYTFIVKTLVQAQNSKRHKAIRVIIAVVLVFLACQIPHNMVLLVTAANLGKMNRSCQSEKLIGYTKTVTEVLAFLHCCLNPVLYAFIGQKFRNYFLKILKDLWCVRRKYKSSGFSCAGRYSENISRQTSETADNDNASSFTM

[19] = biological target: C-X-C chemokine receptor type 5 (Homo sapiens) (UniProt P32302); test: Antagonist activity against CXCR5 (unknown origin) assessed as inhibition of beta-arrestin 2 recruitment at 10 microM by beta arrestin assay relative to control; type: functional; set-up: scale not given: the % may be the effect or the level left
C-X-C chemokine receptor type 5 (Homo sapiens), sequence (P32302 whole entry): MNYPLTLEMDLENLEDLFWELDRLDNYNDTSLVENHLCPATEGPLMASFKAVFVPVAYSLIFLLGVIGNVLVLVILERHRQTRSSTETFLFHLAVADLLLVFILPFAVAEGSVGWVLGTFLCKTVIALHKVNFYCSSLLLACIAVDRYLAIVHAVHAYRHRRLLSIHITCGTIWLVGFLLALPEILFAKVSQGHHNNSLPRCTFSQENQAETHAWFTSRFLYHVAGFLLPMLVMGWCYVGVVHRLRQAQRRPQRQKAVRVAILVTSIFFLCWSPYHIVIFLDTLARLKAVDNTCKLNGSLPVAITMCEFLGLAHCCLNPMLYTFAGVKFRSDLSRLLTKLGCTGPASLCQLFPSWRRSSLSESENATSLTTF

[20] = biological target: C-C chemokine receptor type 7 (Homo sapiens) (UniProt P32248); test: Agonist activity against CCR7 (unknown origin) assessed as induction of beta-arrestin 2 recruitment at 10 microM by beta arrestin assay relative to control; type: functional
C-C chemokine receptor type 7 (Homo sapiens), sequence (P32248 whole entry): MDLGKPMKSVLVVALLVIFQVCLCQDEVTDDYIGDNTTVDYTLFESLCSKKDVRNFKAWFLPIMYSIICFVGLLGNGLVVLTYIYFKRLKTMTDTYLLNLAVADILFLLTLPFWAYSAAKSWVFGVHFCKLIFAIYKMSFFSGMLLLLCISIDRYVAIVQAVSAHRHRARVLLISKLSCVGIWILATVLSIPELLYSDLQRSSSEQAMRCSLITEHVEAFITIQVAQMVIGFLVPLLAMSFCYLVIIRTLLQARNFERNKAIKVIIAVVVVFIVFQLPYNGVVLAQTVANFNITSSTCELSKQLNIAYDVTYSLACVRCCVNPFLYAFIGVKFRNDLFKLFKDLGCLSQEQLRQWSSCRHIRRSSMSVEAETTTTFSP

[21] = tested on: Panc02; test: Antitumour activity against mouse Panc02 cells xenografted in mouse assessed as reduction in infiltration of neutrophils into tumor tissue at 30 mg/kg, po bid measured after 15 days by immunohistochemical analysis; type: functional, organism-based; details: time 15.0 day
[22] = Half life in ICR mouse at 30 mg/kg, po measured upto 48 hrs; type: ADME, organism-based; details: ICR, in vivo
[23] = AUC (0 to infinity) in ICR mouse at 30 mg/kg, po measured upto 48 hrs; type: ADME, organism-based; set-up: route oral, dose 30 mg/kg, time <=48; details: ICR, in vivo
[24] = tested on: Panc02; test: Antitumour activity against mouse Panc02 cells xenografted in mouse assessed as change in CD11b expressing immune cells infiltration into tumor tissue using LY6C antibody at 30 mg/kg, po bid measured after 15 days by flow cytometry analysis (reference value: 20.5%); type: functional; details: time 15 day
[25] = tested on: BXPC-3; test: Cytotoxicity against human BxPC3 cells assessed as reduction in cell viability measured after 72 hrs by CCK8 assay; type: cell-based; details: BXPC-3, 72 h
[26] = biological target: C-C chemokine receptor type 9 (Homo sapiens) (UniProt P51686); test: Antagonist activity against CCR9 (unknown origin) assessed as inhibition of beta-arrestin 2 recruitment at 10 microM by beta arrestin assay relative to control; type: functional; set-up: scale not given: the % may be the effect or the level left
[27] = biological target: C-C chemokine receptor type 5 (Homo sapiens) (UniProt P51681); test: Antagonist activity against CCR5 (unknown origin) assessed as inhibition of beta-arrestin 2 recruitment at 10 microM by beta arrestin assay relative to control; type: functional; set-up: scale not given: the % may be the effect or the level left
C-C chemokine receptor type 5 (Homo sapiens), sequence (P51681 whole entry, looked up): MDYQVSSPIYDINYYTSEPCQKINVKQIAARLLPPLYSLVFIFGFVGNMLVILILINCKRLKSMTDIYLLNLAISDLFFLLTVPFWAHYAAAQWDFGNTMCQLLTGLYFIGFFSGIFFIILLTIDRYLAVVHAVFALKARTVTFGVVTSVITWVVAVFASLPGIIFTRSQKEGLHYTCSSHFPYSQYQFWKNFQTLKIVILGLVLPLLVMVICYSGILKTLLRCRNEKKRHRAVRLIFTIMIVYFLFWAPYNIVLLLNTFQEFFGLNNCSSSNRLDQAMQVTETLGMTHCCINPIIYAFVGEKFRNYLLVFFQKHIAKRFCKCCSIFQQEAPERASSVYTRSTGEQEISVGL

[28] = biological target: C-C chemokine receptor type 1 (Homo sapiens) (UniProt P32246); test: Antagonist activity against CCR1 (unknown origin) assessed as inhibition of beta-arrestin 2 recruitment at 10 microM by beta arrestin assay relative to control; type: functional; set-up: scale not given: the % may be the effect or the level left; details: filed as antagonist
[29] = Apparent volume of distribution in ICR mouse at 3 mg/kg, iv measured upto 48 hrs; type: ADME, organism-based; details: in vivo, read-out: Vz
[30] = Clearance in ICR mouse at 30 mg/kg, po measured upto 48 hrs; type: ADME, organism-based; details: ICR, in vivo
[31] = tested on: Panc02; test: Antitumour activity against mouse Panc02 cells xenografted in mouse assessed as tumour growth inhibition at 30 mg/kg, po bid […]; type: functional; details: read-out: TGI
[32] = Apparent volume of distribution in ICR mouse at 30 mg/kg, po measured upto 48 hrs; type: ADME, organism-based; details: in vivo

C-C chemokine receptor type 1 (Homo sapiens), sequence (P32246 whole entry): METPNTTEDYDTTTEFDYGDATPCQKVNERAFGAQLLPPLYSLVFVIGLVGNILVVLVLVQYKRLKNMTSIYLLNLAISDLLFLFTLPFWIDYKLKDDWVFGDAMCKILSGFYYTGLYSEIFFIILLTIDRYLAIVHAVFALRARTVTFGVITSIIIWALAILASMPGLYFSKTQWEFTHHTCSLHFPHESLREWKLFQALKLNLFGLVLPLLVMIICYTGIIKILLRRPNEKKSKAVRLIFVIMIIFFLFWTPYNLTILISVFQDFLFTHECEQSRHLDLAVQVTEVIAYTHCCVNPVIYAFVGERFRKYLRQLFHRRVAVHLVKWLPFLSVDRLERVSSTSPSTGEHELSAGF

Activity [1]: < 10%
Activity [2]: < 10%
AUC(0-t) at 48 h [3]: 357 ng·h/mL
Tmax [4]: 1.41 h
Activity [6]: 15%
half-life [7]: 4.11 h
Activity [11]: 109%
IC50 [12]: 95 nM
Activity [13]: 33%
Ki [14]: 1240 nM
Activity [15]: 17%
Activity [16]: < 10%
Cmax [17]: 19 ng/mL
Activity [18]: < 10%
Activity [19]: 11%
Activity [20]: < 10%
half-life [22]: 4.94 h
AUC(0-inf) [23]: 229 ng·h/mL
Activity [26]: 14%
Activity [27]: < 10%
Activity [28]: 49%
Vd [29]: 49 L/kg
CL/F [30]: 2190 mL/min/kg
Vz [32]: 939.87 L/kg
Structure (SMILES): Cc1c(F)cccc1NC(=O)Nc1ccc2c(c1O)S(=O)(=O)CCC2
Activity [5]: Active
IC50 [8]: > 10000 nM
Activity [9]: 11.2%
Activity [10]: 7.5%
Activity [21]: Active
Activity [24]: 15.3%
IC50 [25]: > 10000 nM
inhibition in vivo at 30 mg/kg [31]: 61.4%

Reference: ChEMBL document CHEMBL5032530, “Discovery of Benzocyclic Sulfone Derivatives as Potent CXCR2 Antagonists for Cancer Immunotherapy” (J Med Chem, 2021)
